Measurements taken from patent US7972793B2, “Methods and compositions for the treatment of psychotic disorders through the identification of the SULT4A1-1 haplotype” (Suregene, LLC, priority 2009, dated 2011).
Read-outs that look alike come from different tables or passages of the source. Marks after values point to notes of the source that are not given here.

Legend:
[1] = system: CATIE schizophrenia patients; test: Length of successful treatment by the CGI scale (TMSUCC1) in CATIE; format: in vivo, human
Source text: The CATIE clinical data set included the Clinical Global Impression (CGI) Scale, an observer-provided assessment of the psychiatric health of the patient (Stroup et al., 2003; Guy 1976). Patients are rated with the CGI Scale from 1 to 7, with higher scores indicating greater severity of illness. The CATIE study provided a response variable that measured the time (in months) of successful treatment as measured by the CGI scale (“TMSUCC1” in the CATIE data).
The CATIE clinical data set included Clinical Global Impression (CGI) Scale, an observer-provided assessment of the psychiatric health of the patient (Stroup et al., 2003; Guy 1976). Patients are rated with the CGI Scale from 1 to 7, with higher scores indicating greater severity of illness. The CATIE study provided a response variable that measured the time (in months) of successful treatment as measured by the CGI scale (“TMSUCC1” in the CATIE data).

[2] = system: CATIE Phase I non-responders; settings: CATIE Phase II, LOCF; for Responders (number): decrease PANSS ≧ 20%
[3] = system: CATIE African American schizophrenia patients; test: CATIE drug response: change in total PANSS (LOCF), segmented by SULT4A1-1 status, African Americans; format: in vivo, human
Description: The design of the CATIE study has been described in detail by others (Lieberman et al., 2005; Stroup et al., 2003). […] A total of 738 subjects consented to provide DNA for genetic study. […] Retrospective genetic analyses, judged to be exempt from human studies requirements by an IRB, were conducted in the current study. All tested patients were studied using well established clinical endpoints comparing baseline, intermediate, and last observation carried forward (LOCF) for the PANSS scores using CATIE data. […] To remove time on drug as a variable for the CATIE trial, analysis was limited to only those patients who were randomized to a different drug following the initial washout period (drug switchers).

[4] = system: CATIE Caucasian schizophrenia patients; test: Time to discontinuation for all causes in the CATIE study; format: in vivo, human; settings: SULT4A1-1 Negative
Source text: The primary endpoint for the CATIE study was time to discontinuation for all causes (Lieberman et al., 2005). Thus the inventors evaluated the effect of SULT41-1 status on this important parameter.

[5] = system: CATIE Caucasian schizophrenia patients; test: CATIE Phase 1 drug response: change in total PANSS (LOCF), drug switchers, segmented by SULT4A1-1 status; format: in vivo, human; settings: for ≦−20% (number of individuals with this percent change in total PANSS; responders) / ≧−20% (number of individuals with this percent change in total PANSS; non-responders): LOCF; for Non Responder (number) / Responder (number): Table 16, 20% decrease in PANSS threshold
Source text: There are several different metrics for quantifying response in clinical trials of antipsychotic medications. The most commonly used psychometric instrument is the Positive and Negative Syndrome Scale (PANSS), a 30-item semi-quantitative instrument scored by clinical professionals (Kay et al., 1987). The greater the decrease in PANSS score, the better the clinical response. The most direct measure of clinical response is absolute change in PANSS score. In addition to absolute change, the improvement is often reported as a percentage change from baseline PANSS score.
A decrease of at least 20% in total PANSS is one commonly used threshold for response (Leucht et al., 2009).
The design of the CATIE study has been described in detail by others (Lieberman et al., 2005; Stroup et al., 2003). […] A total of 738 subjects consented to provide DNA for genetic study. […] Retrospective genetic analyses, judged to be exempt from human studies requirements by an IRB, were conducted in the current study.
All tested patients were studied using well established clinical endpoints comparing baseline, intermediate, and last observation carried forward (LOCF) for the PANSS scores using CATIE data. LOCF analysis is a commonly used clinical endpoint for clinical trials for neuropsychiatric drugs, with changes in PANSS scores of between negative 20% and negative 30% used as typical endpoints to indicate clinically significant response (Leucht et al., 2009). To remove time on drug as a variable for the CATIE trial, analysis was limited to only those patients who were randomized to a different drug following the initial washout period (drug switchers).
As mentioned previously, the mean change in absolute or percent PANSS provides an important measure of efficacy in patients undergoing antipsychotic treatments. Indeed, many pivotal trials in the psychosis field used absolute and/or percentage change in PANSS Score as the primary endpoint (Leucht et al., 2009). […] Therefore, in addition to examining a categorical definition of clinically significant response, the inventors determined the impact of segmentation by SULT4A1-1 status on the quantitative measure of clinical improvement—delta PANSS.

[6] = system: CATIE Caucasian subjects; test: Rate of hospitalization due to exacerbation of psychosis in CATIE by SULT4A1-1 status; format: in vivo, human
Source text: For this analysis, the inventors assigned a dichotomous value (positive or negative) for hospitalization status to subjects in each phase of the trial based on only the first hospitalization event for a given patient in that phase.

[7] = SULT4A1-1 Negative, CATIE Caucasians
[8] = SULT4A1-1 Positive, CATIE Caucasians
[9] = SULT4A1-1 negative group (sign not given)
[10] = SULT4A1-1 positive group (sign not given)
[11] = olanzapine SULT4A1-1 + vs olanzapine SULT4A1-1 −, CATIE
[12] = olanzapine SULT4A1-1 + vs perphenazine SULT4A1-1 +, CATIE
[13] = olanzapine SULT4A1-1 + vs quetiapine SULT4A1-1 +, CATIE
[14] = olanzapine SULT4A1-1 + vs risperidone SULT4A1-1 +, CATIE
[15] = olanzapine SULT4A1-1 + vs unsegmented (all drugs), CATIE
[16] = olanzapine SULT4A1-1 + vs unsegmented SULT4A1-1 +, CATIE
[17] = olanzapine SULT4A1-1 + vs unsegmented olanzapine, CATIE
[18] = olanzapine SULT4A1-1 + vs ziprasidone SULT4A1-1 +, CATIE
[19] = SULT4A1-1 Positive, CATIE Phases 1, 2 and/or 3
[20] = Unsegmented, CATIE Phases 1, 2 and/or 3

Cc1cc2c(s1)Nc1ccccc1N=C2N1CCN(C)CC1 [Olanzapine]
Length of Successful Treatment (CGI Months), Mean ([1]; SULT4A1-1 Positive): 8.33^d Months
Length of Successful Treatment (CGI Months), Mean ([1]; Unsegmented): 6.10 Months
Nonresponders (number) ([2]; SULT4A1-1 Negative): 14
Responders (number) ([2]; SULT4A1-1 Negative): 3
Nonresponders (number) ([2]; SULT4A1-1 Positive): 4
Responders (number) ([2]; SULT4A1-1 Positive): 3
≦−20% (number of individuals; responders) ([3]; SULT4A1-1 Negative): 15
≧−20% (number of individuals; non-responders) ([3]; SULT4A1-1 Negative): 30
≦−20% (number of individuals; responders) ([3]; SULT4A1-1 Positive): 1
≧−20% (number of individuals; non-responders) ([3]; SULT4A1-1 Positive): 3
Responders ([3]; SULT4A1-1 Positive, change in total PANSS ≦−20%): 25%
Time to discontinuation, mean time in months [4]: 10.0** Months
DELTA PANSS % (mean change in PANSS score from baseline to LOCF) [5, 7]: −3*** %
≦−20% (number of individuals with this percent change in total PANSS; responders) [5, 7]: 10
≧−20% (number of individuals with this percent change in total PANSS; non-responders) [5, 7]: 33
DELTA PANSS % (mean change in PANSS score from baseline to LOCF) ([5]; SULT4A1-1 Negative, CATIE Caucasians, listed as olanzapine): −3%
DELTA PANSS % (mean change in PANSS score from baseline to LOCF) [5, 8]: −24%
≦−20% (number of individuals with this percent change in total PANSS; responders) [5, 8]: 10
≧−20% (number of individuals with this percent change in total PANSS; non-responders) [5, 8]: 5
Non Responder (number) [5, 9]: 33
Responder (number) [5, 9]: 10
Non Responder (number) [5, 10]: 5
Responder (number) [5, 10]: 10
Effect size ([5]; olanzapine SULT4A1-1 + vs SULT4A1-1 + except olanzapine, CATIE): 0.68
Effect size [5, 11]: 0.93
Mean difference (95% CI) in delta PANSS [5, 11]: −20.9 (−33.4 to −8.4)
Effect size [5, 12]: 0.68
Mean difference (95% CI) in delta PANSS [5, 12]: −14.2 (−29.8 to 1.4)
Effect size [5, 13]: 0.75
Mean difference (95% CI) in delta PANSS [5, 13]: −14.9 (−28.3 to −1.5)
Effect size [5, 14]: 0.93
Mean difference (95% CI) in delta PANSS [5, 14]: −20.9 (−33.2 to −6.0)
Effect size [5, 15]: 0.83
Mean difference (95% CI) in delta PANSS [5, 15]: −19.6 (−31.7 to −7.5)
Effect size [5, 16]: 0.60
Mean difference (95% CI) in delta PANSS [5, 16]: −13.0 (−24.7 to −1.2)
Effect size [5, 17]: 0.69
Mean difference (95% CI) in delta PANSS [5, 17]: −15.5 (−27.8 to −3.2)
Effect size [5, 18]: 0.77
Mean difference (95% CI) in delta PANSS [5, 18]: −16.1 (−32.7 to 0.5)
Effect size ([5]; olanzapine-treated SULT4A1-1 positive patients compared to various other SULT4A1-1-drug combinations, CATIE): −0.91 to −0.47
delta PANSS ([5]; overall (not segmented by SULT4A1-1 status), CATIE): −9
Responders (number, out of 58) ([5]; patients unselected for SULT4A1-1 status, 20% PANSS threshold, CATIE Caucasians): 20
HOSP (number of subjects hospitalized) [6, 19]: 1
HOSP (rate of hospitalization) [6, 19]: (2.6%)
HOSP (rate of hospitalization) ([6]; SULT4A1-1 Positive, CATIE Phases 1, 2 and/or 3, listed as olanzapine): 2.6%
HOSP (number of subjects hospitalized) ([6]; SULT4A1-1 negative, CATIE Phases 1, 2 and/or 3): 22
HOSP (number of subjects hospitalized) [6, 20]: 23
HOSP (rate of hospitalization) [6, 20]: (14.2%)
